# In patent publication US10080365B2, “Use of strobilurin type compounds for combating phytopathogenic fungi resistant to Qo inhibitors” (BASF SE, priority 2011, dated 2018):
# Like-named read-outs stand apart in the source and are kept apart here.
# Tests used:
# [1] = test system: Septoria tritici isolates containing the G143A in the cytochrome b gene; test: Glass house Trial 3: control of leaf blotch on wheat caused by two Septoria tritici isolates containing G143A; format: in vivo; conditions: % diseased leaf area after about 28 days
# Protocol: The spray solutions were prepared in several steps:
# The stock solution was prepared as follows: 1.26 ml of a 1:1 mixture of cyclohexanone and dimethylsulfoxide was added to 8.4 mg of active ingredient. Next, 40.74 ml of a mixture of water, acetone (10%), the emulsifier Wettol (0.1%) and the wetting agent Silwet (0.05%) was added. This stock solution was then further diluted with the described solvent-emulsifier-water mixture to the desired concentrations.
# Trial 3: Control of Leaf Blotch on Wheat Caused by Caused by Two Septoria tritici Isolates Containing the G143A in the Cytochrome b Gene for their Cytochrome Bc1 Complex
# Wheat plants were grown in pots. These plants were sprayed to run-off with an aqueous suspension, containing the desired concentration of active ingredient. The next day, the treated plants were inoculated with an aqueous suspension of Septoria tritici. After inoculation, the trial plants were covered with a lid and immediately transferred to a chamber with a relative humidity of about 83 to 85% and 19.5 to 20° C. After 4 days the lid was removed. Altogether, the trial plants were cultivated for about 28 days in that greenhouse chamber. The extent of fungal attack on the leaves was then visually assessed as % diseased leaf area.
# [2] = test system: Septoria tritici (Qo-inhibitor-resistant, G143A mutant); test: Microtiter test, Septoria tritici Qo-inhibitor-resistant G143A mutant (Use Example 1); format: cell-based; conditions: for IC50: read-out: Resistant Septoria tritici isolate (G143A mutation) (R-IC50); for Resistance factor RF = R-IC50/S-IC50: ratio of IC50 for G143A resistant isolate to IC50 for wild-type sensitive isolate
# Protocol: (§1) The active substances were formulated separately as a stock solution in dimethyl sulfoxide (DMSO) at a concentration of 10 000 ppm.
# (§2) Activity against the Septoria blotch pathogen caused by Septoria tritici in the microtiter test
# (§3) Fungal strains used: • a) Septoria tritici (Qo-inhibitor sensitive, wild-type) • b) Septoria tritici (Qo-inhibitor-resistant, G143A mutant)
# (§4) 100 ml 2% Malt extract in water at pH6.8 were inoculated with microspores from 2 week old cultures grown on 2% malt extract+2% agar in Petri dishes and incubated for 3 days on a rotary shaker at 24° C. und 150 rpm. The culture was harvested, glycerol was added (15% (v/v) and kept frozen at −20° C. in aliquots of 1 ml.
# (§5) 1 ml stock suspension was thawed and suspended into 800 ml of 2% malt extract in water at pH 6.8. Compounds were diluted from stock solution in (dimethylsulfoxide) DMSO in 10 steps. The compound solutions were diluted 1/5 with sterile deionized water before use. 5 μl of the compound solutions were transferred into empty microplates. The plates were then filled with 195 μl of the microspore suspension of each strain.
# (§6) The antifungal activity was determined by measuring the turbidity of a culture in 96-well microplates in the presence of test compounds. Fungal growth was measured by recording the optical density at 620 nm every 15 h for 150 h. The relative antifungal activity was calculated by comparison of the effect of the test compounds with the effect of a DMSO control and a standard fungicide.
# (§7) IC50-values (concentration of test compound resulting in 50% inhibition of fungal growth) were calculated from the resulting dose-response for each compound and strain. The initial concentration of the test compounds and the 10 steps of dilution (1:4 each) allowed IC50-values from 0.001 to 100 μmol/l (μM) to be assessed.
# [3] = test system: Septoria tritici (Qo-inhibitor sensitive, wild-type); test: Microtiter test, Septoria tritici Qo-inhibitor sensitive wild-type (Use Example 1); format: cell-based; conditions: turbidity at 620 nm, read-out: Sensitive Septoria tritici isolate (wild type) (S-IC50)
# Protocol: as §1, §2, §3, §4, §5, §6, §7
# [4] = Resistant Septoria tritici isolate 1 (G143A mutation), 12.5 ppm
# [5] = Resistant Septoria tritici isolate 1 (G143A mutation), 25 ppm
# [6] = Resistant Septoria tritici isolate 1 (G143A mutation), 50 ppm
# [7] = Resistant Septoria tritici isolate 1 (G143A mutation), 100 ppm
# [8] = Resistant Septoria tritici isolate 1 (G143A mutation), 200 ppm
# [9] = Resistant Septoria tritici isolate 2 (G143A mutation), 12.5 ppm
# [10] = Resistant Septoria tritici isolate 2 (G143A mutation), 25 ppm
# [11] = Resistant Septoria tritici isolate 2 (G143A mutation), 50 ppm
# [12] = Resistant Septoria tritici isolate 2 (G143A mutation), 100 ppm
# [13] = Resistant Septoria tritici isolate 2 (G143A mutation), 200 ppm
# [14] = microtiter test, Qo-inhibitor-resistant G143A mutant, turbidity at 620 nm
SMILES,"IC50 [2, 14]",Resistance factor RF = R-IC50/S-IC50 [2],IC50 [3],also measured
CNC(=O)C(=NOC)C(C)=CCOc1ccn(-c2ccc(F)cc2F)n1 [Compound I-11],–,–,–,"Disease level (%) [1, 4]: 100%; Disease level (%) [1, 5]: 90%; Disease level (%) [1, 6]: 30%; Disease level (%) [1, 7]: 3%; Disease level (%) [1, 8]: 1%; Disease level (%) [1, 9]: 70%; Disease level (%) [1, 10]: 50%; Disease level (%) [1, 11]: 30%; Disease level (%) [1, 12]: 5%; Disease level (%) [1, 13]: 1%"
CNC(=O)C(=NOC)C(C)=CCOc1ccn(-c2ccc(F)cc2Cl)n1 [Compound I-14],–,–,–,"Disease level (%) [1, 4]: 100%; Disease level (%) [1, 5]: 80%; Disease level (%) [1, 6]: 70%; Disease level (%) [1, 7]: 15%; Disease level (%) [1, 8]: 3%; Disease level (%) [1, 9]: 90%; Disease level (%) [1, 10]: 70%; Disease level (%) [1, 11]: 15%; Disease level (%) [1, 12]: 5%; Disease level (%) [1, 13]: 1%"
"CNC(=O)/C(=N/OC)c1ccccc1Oc1ccccc1 [Metominostrobin, reference compound]",–,–,–,IC50 ([2]; Zymoseptoria tritici): > 100 µM; IC50 ([3]; Zymoseptoria tritici): > 100 µM
CON=C(C(=O)OC)C(C)=CCOc1ncn(-c2ccc(Br)cc2)n1 [Compound I-292],33 µM,4.2,7.9 µM,–
Cc1cc(-c2c(C)noc2C)c(C)cc1OCc1ccccc1-n1nnn(C)c1=O [Compound I-269],74 µM,10,8 µM,–
CCCC(=NOCC)c1cc(C)c(OCc2ccccc2-n2nnn(C)c2=O)cc1C [Compound I-250],97 µM,5,19 µM,–
CCON=C(CC)c1ccc(OCc2ccccc2-n2nnn(C)c2=O)c(C)c1 [Compound I-238],12 µM,1.9,6 µM,–
"CNC(=O)/C(=N/OC)c1ccccc1CO/N=C(C)/C(=N/OC)C(/C)=N/OC [Orysastrobin, reference compound]",> 100 µM,–,27 µM,–
CCON=C(C)c1cc(C)c(OCc2ccccc2-n2nnn(CC)c2=O)cc1C [Compound I-255],42 µM,2.2,19 µM,–
C=CCO/N=C(\C)c1ccc(OCc2ccccc2-n2nnn(C)c2=O)c(C)c1 [Compound I-218],79 µM,14,5.6 µM,–
CON=C(C(=O)OC)C(C)=CCOc1ccn(-c2cc(Cl)ccc2C)n1 [Compound I-307],67 µM,3.5,19 µM,–
Cc1cn(-c2ccc(Cl)cc2)nc1OCc1ccccc1-n1nnn(C)c1=O [Compound I-244],1.3 µM,2.0,0.6 µM,–
"CO/C=C(/C(=O)OC)c1ccccc1COc1cccc(C(F)(F)F)n1 [Picoxystrobin, reference compound]",> 100 µM,–,2.3 µM,–
"CO/C=C(/C(=O)OC)c1ccccc1Oc1cc(Oc2ccccc2C#N)ncn1 [Azoxystrobin, reference compound]",> 100 µM,–,3.5 µM,–
CCON=C(C)c1ccc(OCc2ccccc2-n2nnn(C)c2=O)c(C)c1 [Compound I-249],11 µM,5,2.4 µM,–
CCON=C(C)c1ccc(OCC=C(C)C(=NOC)C(=O)OC)c(C)c1 [Compound I-191],37 µM,29,1.3 µM,–
Cc1c(OCc2ccccc2-n2nnn(C)c2=O)nn2c(C3CC3)cc(C3CC3)nc12 [Compound I-273],22 µM,4,5 µM,–
CON=C(C(=O)OC)C(C)=CCOc1ncn(-c2cc(C(F)(F)F)ccc2Cl)n1 [Compound I-298],31 µM,8.6,3.6 µM,–
C=C(Cl)CON=C(C)c1ccc(OCC=C(C)C(=NOC)C(=O)OC)c(C)c1 [Compound I-97],49 µM,29,1.7 µM,–
Cc1cc(-c2cnco2)c(C)cc1OCc1ccccc1-n1nnn(C)c1=O [Compound I-267],5 µM,1.7,2.9 µM,–
CC(Cc1ccc(Cl)cc1)=NOCc1ccccc1-n1nnn(C)c1=O [Compound I-230],25 µM,8,3.2 µM,–
CC=CCON=C(C)c1cc(C)c(OCC=C(C)C(=NOC)C(=O)NC)cc1C [Compound I-90],26 µM,26,1 µM,–
C=CCON=C(C)c1cc(C)c(OCC=C(C)C(=NOC)C(=O)OC)cc1C [Compound I-94],12 µM,22,0.6 µM,–
C#CCO/N=C(\C)c1ccc(OCc2ccccc2-n2nnn(C)c2=O)c(C)c1 [Compound I-221],10 µM,3,3.4 µM,–
CCc1ccc(-n2cc(C)c(OCc3ccccc3-n3nnn(C)c3=O)n2)cc1 [Compound I-261],5 µM,1.6,2.9 µM,–
CCC(=CCOc1ccn(-c2ccc(Cl)cc2)n1)C(=NOC)C(=O)NC [Compound I-287],18 µM,12,1.5 µM,–
"CNC(=O)/C(=N/OC)c1ccccc1COc1cc(C)ccc1C [Dimoxystrobin, reference compound]",> 100 µM,–,7.1 µM,–
CON=C(C(=O)OC)C(C)=CCOc1ccn(-c2ccc(Cl)cc2)n1 [Compound I-5],2.2 µM,26,0.083 µM,–
C/C(=N\OC/C=C/Cl)c1cc(C)c(OCc2ccccc2-n2nnn(C)c2=O)cc1C [Compound I-223],19 µM,7,2.7 µM,–
"COC(=O)N(OC)c1ccccc1COc1c(C)c(-c2ccccc2)nn1C [Pyrametostrobin, reference compound]",> 100 µM,–,> 100 µM,–
